According to PubChem BioAssay AID504765 (Sanford-Burnham Center for Chemical Genomics, 2011):
Active and inactive are the calls of the source. The rule behind the calls is not given here.

Target: glucose-6-phosphate dehydrogenase-6-phosphogluconolactonase (Plasmodium falciparum 3D7)
Experiment: concentration-dependent PfGluPho enzyme inhibition – biochemical, fluorescence intensity, dose response (AID 504765)
Settings: Recombinant PfG6PD enzyme, fluorescence intensity (NADPH)

SMILES | IC50
CCNc1ccccc1CP(=O)(c1ccccc1)c1ccccc1O (configuration not stated) | 6.81 µM
O=c1[nH]sc2cc(F)ccc12 | 9.86 µM
Cn1c(=O)[nH]c(=O)c2c1nc(SCCN1CCCCC1)n2CCCc1ccccc1 | 14.2 µM
O=C(CNC(=O)c1ccco1)OCC(=O)c1ccc([N+](=O)[O-])cc1 | 19.1 µM
COc1cc(C(=O)ON=C2C=C(C)C(=O)C(C)=C2)cc(OC)c1OC | 5.09 µM
Cc1ccc(NC(=O)c2cc(N3C(=O)C=CC3=O)ccc2N2CCOCC2)cc1Cl | 12.2 µM
CCN(CC)c1ccc(C(=C2C=CC(=[N+](CC)CC)C=C2)c2ccc(N(CC)CC)cc2)cc1 | 10.3 µM
CN1CCN(C(=S)c2ccc([N+](=O)[O-])cc2)CC1 | inactive
O=C1CCN(c2ccccc2)N1 | 1.34 µM
COc1ccccc1NS(=O)(=O)c1cc(NC(=O)c2ccc(Cl)nc2)ccc1N1CCCC1 | inactive
O=C(Nc1nnc(S(=O)(=O)N2CCOCC2)s1)c1ccc(F)cc1 | 11.4 µM
COc1cc(N2C(=O)C=CC2=O)ccc1N1C(=O)C=CC1=O | 4.43 µM
O=C(COC(=O)c1cnccn1)c1ccc([N+](=O)[O-])cc1 | 12.2 µM
Cc1ccc(S(=O)(=O)/N=C2/C=C(C3C(=O)CC(C)(C)CC3=O)C(=O)c3ccccc32)cc1 | 14.1 µM
COC(=O)c1cc2c(n1S(=O)(=O)c1ccc(C)cc1)C(=O)C(=O)c1[nH]cc(C(=O)OCc3ccccc3)c1-2 | 15.8 µM
Cc1cc(C)c2c(=O)n(CC(=O)Nc3ccc(Br)c(C)c3)sc2n1 | 2.62 µM
Clc1ccc2nc(-c3ccc(Br)s3)cn2c1 | 8.89 µM
Cc1c(/C=C/C(=O)c2ccc(Cl)s2)cnn1C | 9.12 µM
O=C(CN1C(=O)C2C3C=CC(C3)C2C1=O)OCC(=O)c1ccc([N+](=O)[O-])cc1 (configuration not stated) | 9.71 µM

SMILES | IC50
O=C1C=CC(=O)N1CCCCCCCCCCN1C(=O)C=CC1=O | 13.5 µM
Nc1[nH]c(=O)[nH]c(=O)c1N=Cc1ccccc1 | 3.29 µM
COc1cc(Sc2ccc(C)cc2)c(OC)cc1N | 7.04 µM
CCOc1ccc(N(CC(=O)N/N=C/c2cc([N+](=O)[O-])ccc2Cl)S(C)(=O)=O)cc1 | 15.1 µM
CC1(C)CN(c2ccccc2)N(C(=O)c2ccc(C#N)cc2)C1=O | 9.37 µM
Cc1nnc(Sc2cc(NCCO)c([N+](=O)[O-])c3nonc23)s1 | 5.56 µM
CCN(CC)c1ccc(NC(=O)c2cccc(C)c2)cc1S(=O)(=O)Nc1ccccc1OC | inactive
COc1cccc(C(=O)Nc2nnc(C(C)C)s2)c1 | 5.83 µM
COc1ccc(CN(C)S(=O)(=O)c2nnc(NC(=O)c3cccc(C)c3)s2)cc1OC | 6.89 µM
COc1cc(CNc2ccc(N3CCCC3)cc2)ccc1OCc1ccccc1F | 2.39 µM
[O-]/[N+](=C/c1cccnc1)c1ccc(Br)cc1 | 1.11 µM
C[n+]1c(-c2ccccc2)cc2c(=Cc3ccc([N+](=O)[O-])cc3)c3ccccc3n21 | inactive
CCCN1CCc2cc(O)cc3c2[C@H]1Cc1ccc(O)c(O)c1-3 | 10.8 µM
S=C(NN=Cc1ccccn1)N(Cc1ccccn1)Cc1ccccn1 | 4.66 µM
O=C1CCC[C@@H]2[C@@H](Cc3ccccc3)[C@H](N3CCN(c4ccccc4)CC3)C[C@@H]3CCN1[C@@H]32 | 9.43 µM
O=C1Nc2cc(C(=O)NCCCN3CCCC3)ccc2S/C1=C\c1ccccc1 | 9.3 µM
CN(C)c1nc(=NCc2cccs2)ss1 | 11.9 µM
COc1cc(N=c2ssnc2Cl)c(OC)cc1Cl | 13.5 µM
COc1ccc2c(c1)c(=Cc1ccc(N(C)C)cc1)c1cc(-c3ccccc3)[n+](C)n12 | 17.2 µM

SMILES | IC50
COC(=O)CCC(=O)OC1(C)C(=O)C2=CN(C3CC3)C(c3ccc(OC)cc3)=CC2=C(Br)C1=O (configuration not stated) | 2.46 µM
CC(C)c1cc2c(c(O)c1O)[C@@]13CCCC(C)(C)C1CC2OC3=O (some centres not stated) | 4.95 µM
CC1=NOC(=O)/C1=C\c1ccc(-c2ccccc2Br)o1 | inactive
COc1cccc(C(=O)Nc2nnc(S(=O)(=O)N(C)Cc3ccccc3)s2)c1 | 4.04 µM
Cc1[nH]c2ccccc2c1/C=N/Nc1nncn1N | 5.61 µM
Cc1cc(C)c2c(=O)n(CC(=O)N3CCC(N4CCCCC4)CC3)sc2n1 | 3.88 µM
O=c1c2ccccc2sn1-c1cc(S(=O)(=O)N2CCOCC2)ccc1N1CCCC1 | 1.08 µM
O=c1c2ccccc2sn1-c1ccc(Cl)cc1 | 2.83 µM
CCOC(=O)Nc1ccc(NCc2ccc(F)cc2)nc1N | 3 µM
Cc1ccc(/C=C/C(=O)NC2CCCCCCC2)o1 | 9.66 µM
O=C(CCC(=O)OCC(=O)c1ccc([N+](=O)[O-])cc1)Nc1ccccc1Cl | 6.61 µM
Cc1cc(O)c(-c2cc(O)c(C)cc2O)cc1O | 1.88 µM
Fc1cccc(Cl)c1CNc1ccc(N2CCCC2)cc1 | 4.06 µM
COc1ccc(/C=C/c2nc3ccccc3n2C)cc1 | 8.04 µM
O=C1C=CC(=O)N1c1ccc(N2CCCCC2)cc1 | 15.6 µM
N#Cc1ccc(Oc2cccc3cccnc23)c([N+](=O)[O-])c1 | 5.66 µM
Cc1ccc(C(=O)/C=C/C(=O)c2ccc(C)cc2)cc1 | 7.28 µM
O=C(Nc1sc2c(c1C(=O)O)CCC2)c1ccc(F)cc1 | 7.8 µM
O=C(O)c1ccccc1NS(=O)(=O)c1cccc(-n2sc3ccccc3c2=O)c1 | 5.54 µM
